Patent publication US20020086861A1, “Fused 1,2,4- thiadiazine derivatives, their preparation and use” (priority 1998, published 2002)
Each block holds one molecule with its values, some of them ahead of it.

Columns and labels:
[1] = target: T1, KATP-channels on pancreatic beta-cells (Homo sapiens, UniProt Q09428); details: by an activation of KATP-channels on pancreatic beta-cells; cited from earlier work
T1 construct: host or cells: pancreatic beta-cells

[2] = test system: BB-rats; details: cited from earlier work
[3] = test system: obese Zucker rats; details: cited from earlier work

T1 sequence (Q09428 whole entry): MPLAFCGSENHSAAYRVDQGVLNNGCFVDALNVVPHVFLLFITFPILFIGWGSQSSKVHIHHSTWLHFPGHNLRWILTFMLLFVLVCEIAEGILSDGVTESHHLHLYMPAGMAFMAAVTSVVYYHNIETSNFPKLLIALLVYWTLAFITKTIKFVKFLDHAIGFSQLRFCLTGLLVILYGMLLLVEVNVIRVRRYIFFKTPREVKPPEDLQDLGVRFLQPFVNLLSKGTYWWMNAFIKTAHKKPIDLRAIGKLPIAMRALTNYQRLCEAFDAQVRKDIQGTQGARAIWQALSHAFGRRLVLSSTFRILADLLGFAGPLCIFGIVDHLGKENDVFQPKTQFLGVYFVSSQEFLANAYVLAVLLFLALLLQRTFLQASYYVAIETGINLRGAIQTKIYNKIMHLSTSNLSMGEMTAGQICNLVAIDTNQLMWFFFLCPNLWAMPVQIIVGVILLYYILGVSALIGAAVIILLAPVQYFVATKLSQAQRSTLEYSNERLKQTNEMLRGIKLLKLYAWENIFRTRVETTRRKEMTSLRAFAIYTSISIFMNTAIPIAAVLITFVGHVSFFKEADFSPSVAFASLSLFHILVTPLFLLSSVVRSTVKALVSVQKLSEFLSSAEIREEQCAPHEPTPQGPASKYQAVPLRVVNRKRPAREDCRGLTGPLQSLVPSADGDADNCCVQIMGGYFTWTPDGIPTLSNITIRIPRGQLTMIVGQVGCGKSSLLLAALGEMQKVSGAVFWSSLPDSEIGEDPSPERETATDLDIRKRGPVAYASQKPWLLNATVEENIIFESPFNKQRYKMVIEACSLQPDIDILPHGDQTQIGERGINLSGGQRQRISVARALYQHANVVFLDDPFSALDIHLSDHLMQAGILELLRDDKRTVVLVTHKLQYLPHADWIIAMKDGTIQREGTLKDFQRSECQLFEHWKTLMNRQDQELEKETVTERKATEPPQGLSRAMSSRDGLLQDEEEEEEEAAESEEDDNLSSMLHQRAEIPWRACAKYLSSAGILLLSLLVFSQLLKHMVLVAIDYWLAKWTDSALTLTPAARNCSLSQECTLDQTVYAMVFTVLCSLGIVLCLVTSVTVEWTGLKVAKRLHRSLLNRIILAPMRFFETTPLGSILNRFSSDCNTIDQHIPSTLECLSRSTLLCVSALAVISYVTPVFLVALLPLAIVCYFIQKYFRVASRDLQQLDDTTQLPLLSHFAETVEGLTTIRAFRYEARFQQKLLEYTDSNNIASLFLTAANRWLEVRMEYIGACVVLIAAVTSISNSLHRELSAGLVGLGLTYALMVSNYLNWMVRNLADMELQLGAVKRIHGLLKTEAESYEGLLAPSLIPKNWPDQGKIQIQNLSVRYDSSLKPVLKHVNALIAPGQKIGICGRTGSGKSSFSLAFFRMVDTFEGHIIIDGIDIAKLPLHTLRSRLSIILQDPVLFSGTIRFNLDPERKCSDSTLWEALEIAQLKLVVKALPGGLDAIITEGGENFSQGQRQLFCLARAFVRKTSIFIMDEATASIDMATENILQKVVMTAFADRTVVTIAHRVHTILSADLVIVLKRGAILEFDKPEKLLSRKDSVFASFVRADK
T1 sequence (Q14654 whole entry partner): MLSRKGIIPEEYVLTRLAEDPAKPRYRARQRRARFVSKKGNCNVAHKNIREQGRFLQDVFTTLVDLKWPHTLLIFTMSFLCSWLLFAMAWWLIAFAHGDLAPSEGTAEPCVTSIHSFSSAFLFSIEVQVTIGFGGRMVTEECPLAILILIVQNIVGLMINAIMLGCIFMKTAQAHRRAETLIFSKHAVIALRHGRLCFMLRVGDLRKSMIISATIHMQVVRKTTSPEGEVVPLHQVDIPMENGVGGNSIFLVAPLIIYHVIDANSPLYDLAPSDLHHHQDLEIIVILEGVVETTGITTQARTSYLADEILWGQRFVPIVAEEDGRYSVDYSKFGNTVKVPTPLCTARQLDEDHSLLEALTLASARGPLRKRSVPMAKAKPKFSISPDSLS

melting point: 339 to 340 °C
Compound: O=S1(=O)N=C(NC23CC4CC(CC(C4)C2)C3)Nc2cc(Cl)sc21 [Example 6, 3-(1-Adamantyl)amino-6-chloro-4H-thieno[3,2-e]-1,2,4-thiadiazine 1,1-dioxide]

melting point: 213 to 214 °C
Compound: O=S1(=O)N=C(NC2(CO)CCCC2)Nc2cc(Cl)sc21 [Example 9, 6-Chloro-3-(1-hydroxymethylcyclopentyl)amino-4H-thieno[3,2-e]-1,2,4-thiadiazine 1,1-dioxide]

melting point: 294 to 296 °C
Compound: CC1(NC2=NS(=O)(=O)c3sc(Cl)cc3N2)CCC1 [Example 13, 6-Chloro-3-(1-methylcyclobutyl)amino-4H-thieno[3,2-e]-1,2,4-thiadiazine 1,1-dioxide]

The remaining lines, values behind:

Compound: CC(C)(CO)NC1=NS(=O)(=O)c2sc(Cl)cc2N1 [Example 4, 6-Chloro-3-(2-hydroxy-1,1-dimethylethylamino)-4H-thieno[3,2-e]-1,2,4-thiadiazine 1,1-dioxide]
melting point: 224 to 226 °C

Compound: CC(C)(NC1=NS(=O)(=O)c2sc(Cl)cc2N1)c1ccccc1 [Example 10, 6-Chloro-3-(1-methyl-1-phenylethyl)amino-4H-thieno[3,2-e]-1,2,4-thiadiazine 1,1-dioxide]
melting point: ~ 360 °C (dec.)

Compound: CC1=Nc2ccc(Cl)cc2S(=O)(=O)N1 [diazoxide, 7-chloro-3-methyl-2H-1,2,4-benzothiadiazine 1,1-dioxide]
insulin release [1]: inhibit insulin release
onset of diabetes [2]: delay the onset of diabetes
glucose tolerance [3]: improve glucose tolerance
insulin receptor binding [3]: increase insulin receptor binding
insulin secretion [3]: decrease insulin secretion
weight gain [3]: decrease weight gain
